From patent US20210269453A1, “Bryoid Compositions, Methods of Making and Use Thereof” (Aphios Corporation, priority 2018, published 2021)

Tested on: alpha-secretase
Assay: Effect of purified Bryoids on alpha-secretase activity in SHSY-5Y neuroblastoma cells (FIG. 10)
Assay type: cell-based
Settings: 10-^9M, FIG. 10, relative to Bryostatin-1
Source text: FIG. 10 depicts the effect of Bryostatin-1 and different Bryoids at 10-^9M on alpha-secretase activity in SHSY-5Y neuroblastoma cells;
Purified Bryoids at 10-^9M are shown to increase alpha-secretase activity in SHSY-5Y neuroblastoma cells in FIG. 10.

| Compound | alpha-secretase activity |
| --- | --- |
| CCC/C=C/C=C/C(=O)O[C@H]1[C@H]2C=C3C[C@H]([C@@H](C)O)OC(=O)C[C@H](O)C[C@@H]4C[C@H](OC(C)=O)C(C)(C)[C@](O)(C[C@@H]5C/C(=C\C(=O)OC)C[C@H](/C=C/C(C)(C)[C@]1(OC(=O)C2)O3)O5)O4 [Bryoid B3, Bryostatin-3] | improve the production of alpha-secretase over Bryostatin-1 |
| bryostatin-3 26-ketone [Bryoid B16] | improve the production of alpha-secretase over Bryostatin-1 |
